pIC50: −log10 of the molar value. ≈ marks a conversion by molar mass, not a printed value.
Columns and labels:
[1] = test system: S. aureus ATCC 25923; assay: Antimicrobial MIC, S. aureus; assay type: cell-based; conditions: Staphylococcus aureus, ATCC25923, mean (n = 3)
Protocol: (§1) The susceptibility of bacterial strains S. aureus (ATCC 25923), E. coli (ATCC 25922) and P. aeruginosa (ATCC 27853) to antibiotics and compounds was determined using protocols reported previously. Additional antimicrobial evaluation against MRSA (ATCC 43300), Klebsiella pneumoniae (ATCC 700603), Acinetobacter baumannii (ATCC 19606), Candida albicans (ATCC 90028) and Cryptococcus neoformans (ATCC 208821) was undertaken at the Community for Open Antimicrobial Drug Discovery at The University of Queensland (Australia) according to their standard protocols reported previously.

[2] = test system: MRSA ATCC 43300; assay: Antimicrobial MIC, MRSA (CO-ADD); assay type: cell-based, methicillin-resistant S. aureus; conditions: Staphylococcus aureus; MRSA ATCC 43300; mean (n = 2); read-out: MIC MRSA
Protocol: as §1

[3] = test system: P. aeruginosa ATCC 27853; assay: Antimicrobial MIC, P. aeruginosa; assay type: cell-based; conditions: Pseudomonas aeruginosa, ATCC27853, mean (n = 3)
Protocol: as §1

[4] = test system: E. coli ATCC 25922; assay: Antimicrobial MIC, E. coli; assay type: cell-based, Escherichia coli; conditions: Escherichia coli, ATCC25922, E. coli ATCC 25922; mean (n = 3)
Protocol: as §1

[5] = test system: C. albicans ATCC 90028; assay: Antifungal MIC, C. albicans (CO-ADD); assay type: cell-based; conditions: Candida albicans, ATCC90028, mean (n = 2)
Protocol: as §1

[6] = Cytotoxicity assay; assay type: cell-based, human; conditions: human, HEK293 human embryonic kidney cells, mean (n = 2), read-out: Cytotoxicity (IC50), concentration of compound at 50% cytotoxicity
Protocol: Cytotoxicity assays were conducted using the protocols previously reported.

[7] = test system: human red blood cells; assay: Hemolytic assay; assay type: cell-based; conditions: mean (n = 2)
Protocol: Hemolysis assays were conducted using the protocols previously reported.

[8] = test system: P. aeruginosa ATCC 27853; assay: Doxycycline enhancement against P. aeruginosa; assay type: cell-based, Pseudomonas aeruginosa; conditions: doxycycline fixed at 4.5 µM
Protocol: (§2) Antibiotic enhancer concentrations were determined using previously reported protocols.
We then evaluated the set of analogues for the ability to enhance the antibiotic activity of doxycycline against P. aeruginosa ATCC 27853 and of erythromycin against E. coli ATCC 25922 (Table 2). In the case of doxycycline, a fixed concentration of the antibiotic of 4.5 μM, which is twenty-fold lower than the intrinsic MIC 90 μM against this organism, was used. Each of the test compounds was then evaluated at a range of concentrations varying from 3.125 to 50–100 μM, with the upper concentration dependent upon the compounds intrinsic MIC towards P. aeruginosa (Table 1). […] While the observation of cytotoxicity/hemolytic properties of 16a–c, 14f and 13f reduces our interest in these analogues, analogues 13b and 13d were identified as non-toxic and strong enhancers of the action of doxycycline towards P. aeruginosa.

[9] = test system: E. coli ATCC 25922; assay: Erythromycin enhancement against E. coli; assay type: cell-based, Escherichia coli; conditions: erythromycin fixed at 10.9 µM (8 µg/mL)
Protocol: as §2

[10] = test system: C. neoformans ATCC 208821; assay: Antifungal MIC, C. neoformans (CO-ADD); assay type: cell-based; conditions: Cryptococcus neoformans, ATCC208821, mean (n = 2)
Protocol: as §1

SMILES	MIC [1] [µM]	MIC [2] [µM]	MIC [3] [µM]	MIC [4] [µM]	MIC [5] [µM]	pIC50 [6]	Hemolysis (HC10), concentration of compound at 10% hemolytic activity [7] [µM]	Dox/P. a: concentration required to restore doxycycline activity [8] [µM]	Dox/P. a: fold change (intrinsic MIC of test compound / combination MIC) [8] [fold]	Eryth/E. c: concentration required to restore erythromycin activity [9] [µM]	Eryth/E. c: fold change (intrinsic MIC of test compound / combination MIC) [9] [fold]	MIC [10] [µM]
COc1ccc(/C=C/C(=O)NCCCNCCCCNCCCNC(=O)/C=C/c2ccc(OC)cc2)cc1.O=C(O)C(F)(F)F.O=C(O)C(F)(F)F [Compound 14a, N^1,N^4-Bis(3-((E)-3-(4-methoxyphenyl)acrylamido)propyl)butane-1,4-diaminium 2,2,2-trifluoroacetate]	33.3	> 42.6	> 266	266	> 42.6	< 4.37	>42.6	16.6	> 16	67	4	–
COc1ccc(/C=C/C(=O)NCCCNCCCCCCCCCCNCCCNC(=O)/C=C/c2ccc(OC)cc2)cc1.O=C(O)C(F)(F)F.O=C(O)C(F)(F)F [Compound 14e, N^1,N^10-Bis(3-((E)-3-(4-methoxyphenyl)acrylamido)propyl)decane-1,10-diaminium 2,2,2-trifluoroacetate]	1.87	≤ 0.3	240	120	38.3	5.64	>38.3	60	4	–	–	≤ 0.3
COc1c(Br)cc(/C=C/C(=O)NCCCNCCCCCCCCCCNCCCNC(=O)/C=C/c2cc(Br)c(OC)c(Br)c2)cc1Br.O=C(O)C(F)(F)F.O=C(O)C(F)(F)F [Compound 16e, N^1,N^10-Bis(3-((E)-3-(3,5-dibromo-4-methoxyphenyl)acrylamido)propyl)decane-1,10-diaminium 2,2,2-trifluoroacetate]	1.36	≤ 0.22	87	43.5	27.8	5.70	13.6	43.5	2	–	–	≤ 0.22
[H]/N=C(/N)N[C@H]1[C@H](O)[C@@H](O)[C@H](O[C@@H]2O[C@@H](C)[C@](O)(C=O)[C@H]2O[C@@H]2O[C@@H](CO)[C@H](O)[C@@H](O)[C@@H]2NC)[C@@H](N/C(N)=N\[H])[C@@H]1O [streptomycin, reference compound]	21.5 (≈ 12.5 µg/mL)	–	21.5 (≈ 12.5 µg/mL)	21.5 (≈ 12.5 µg/mL)	–	–	–	–	–	–	–	–
COc1ccc(/C=C/C(=O)NCCCNCCCCCCCNCCCNC(=O)/C=C/c2ccc(OC)c(Br)c2)cc1Br.O=C(O)C(F)(F)F.O=C(O)C(F)(F)F [Compound 15c, N^1,N^7-Bis(3-((E)-3-(3-bromo-4-methoxyphenyl)acrylamido)propyl)heptane-1,7-diaminium 2,2,2-trifluoroacetate]	6.57	≤ 0.26	> 210	26	8.4	< 4.47	–	26.3	> 8	13.1	2	≤ 0.26
CC/C(=C(\c1ccccc1)c1ccc(OCCN(C)C)cc1)c1ccccc1 [tamoxifen, reference compound]	–	–	–	–	–	4.62	–	–	–	–	–	–
